Activity calls are given as the source filed them.
Key:
[1] = target: T1, Corticotropin-releasing factor receptor 2/Corticotropin-releasing factor-binding protein (Homo sapiens, UniProt P24387+Q13324); test: activators of CRF receptor 2 with binding protein – uHTS hits, confirmation (AID 602473); type: functional; settings: read-out: EC50_Mean
T1 sequence (Q13324 whole entry): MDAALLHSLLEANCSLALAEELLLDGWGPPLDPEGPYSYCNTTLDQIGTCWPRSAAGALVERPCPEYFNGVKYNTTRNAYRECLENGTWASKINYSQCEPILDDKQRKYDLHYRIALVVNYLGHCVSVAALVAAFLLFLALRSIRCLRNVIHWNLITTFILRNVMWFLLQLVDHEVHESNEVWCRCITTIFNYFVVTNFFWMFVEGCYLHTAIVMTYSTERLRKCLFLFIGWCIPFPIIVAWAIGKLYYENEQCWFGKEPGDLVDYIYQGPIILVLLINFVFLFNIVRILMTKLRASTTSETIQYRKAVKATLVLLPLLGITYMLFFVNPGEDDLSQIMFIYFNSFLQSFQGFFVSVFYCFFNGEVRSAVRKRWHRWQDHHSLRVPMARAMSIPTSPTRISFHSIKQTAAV
T1 sequence (P24387 whole entry): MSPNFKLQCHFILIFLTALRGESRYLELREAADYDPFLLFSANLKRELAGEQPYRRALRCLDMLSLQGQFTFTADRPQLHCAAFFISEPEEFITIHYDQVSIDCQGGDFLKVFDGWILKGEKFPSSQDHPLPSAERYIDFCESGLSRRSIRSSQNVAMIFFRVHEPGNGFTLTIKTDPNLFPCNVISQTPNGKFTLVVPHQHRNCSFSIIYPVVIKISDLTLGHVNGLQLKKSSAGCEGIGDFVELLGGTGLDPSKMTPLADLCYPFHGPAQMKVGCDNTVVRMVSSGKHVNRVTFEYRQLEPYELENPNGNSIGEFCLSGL

[2] = target: T1, Corticotropin-releasing factor receptor 2/Corticotropin-releasing factor-binding protein; test: Dose Response confirmation of uHTS hits for small molecule antagonists of the CRF-binding protein and CRF-R2 receptor complex.; type: functional; settings: read-out: IC50_Mean
[3] = viability of HCT116 lacking mutant beta-catenin – cell-based, human colon tumor, dose response (AID 1045); type: functional;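 further: HCT116 colon tumor cells with beta catenin knocked out; cells exposed to compound for 60 hours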
[4] = viability of PTEN-deleted HCT116 cells – cell-based, HCT116 PTEN knockout, dose response (AID 1047); type: functional;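 further: HCT116 colon tumor cells with PTEN knocked out; cells exposed to compound for 60 hours before readout; potency for loss of cell viability measured by luminescence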
[5] = test system: Streptococcus sp. 'group A'; test: Streptococcus pyogenes SK(-)GAS viability under kanamycin – luminescence, BacTiterGlo, confirmation, counter-screen for streptokinase expression inhibitor project, dose response (AID 1900); type: functional, organism-based
[6] = target: T2, Heat shock factor protein 1 (Mus musculus, UniProt P38532); test: enhancement of HSF1-driven luciferase signal – cell-based, NIH3T3, luminescence, dose retest, confirmation (AID 435004); type: functional;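 further: stress induced by proteasome inhibitor MG132 added 30 min after compound; luciferase reporter driven by HSF1 response element in NIH3T3 cells; actives raise luminescence as potentiators of the MG132 stress response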
T2 sequence (P38532 whole entry): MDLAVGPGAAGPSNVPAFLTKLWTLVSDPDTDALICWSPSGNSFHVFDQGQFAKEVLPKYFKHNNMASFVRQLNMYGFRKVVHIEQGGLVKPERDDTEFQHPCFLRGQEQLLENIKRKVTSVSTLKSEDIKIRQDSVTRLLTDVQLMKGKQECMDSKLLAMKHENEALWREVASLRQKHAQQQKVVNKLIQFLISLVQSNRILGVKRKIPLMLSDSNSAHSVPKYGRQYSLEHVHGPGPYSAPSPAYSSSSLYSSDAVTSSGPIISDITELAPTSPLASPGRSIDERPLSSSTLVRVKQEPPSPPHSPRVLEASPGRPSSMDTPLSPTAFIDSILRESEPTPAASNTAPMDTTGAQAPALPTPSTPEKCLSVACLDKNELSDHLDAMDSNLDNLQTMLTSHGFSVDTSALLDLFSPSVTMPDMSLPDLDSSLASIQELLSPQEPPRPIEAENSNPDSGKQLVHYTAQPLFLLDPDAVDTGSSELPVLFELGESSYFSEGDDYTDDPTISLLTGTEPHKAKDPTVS

Streptococcus = test: GAS UMAA2166 growth inhibition – luminescence, BacTiterGlo, counter-screen for streptokinase expression inhibitor project, dose response (AID 1915); type: functional, organism-based;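 further: potency for reduction of bacterial viability or growth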
Streptokinase A = target: T3, Streptokinase A (Streptococcus pyogenes serotype M1, UniProt P10520); test: viability-normalized secreted streptokinase activity reduction – plasminogen activation absorbance, OD405, dose response (AID 1914); type: functional, Streptococcus pyogenes M1 GAS;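 further: secreted streptokinase activity via plasminogen activation per viability signal from cell pellet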
T3 sequence (P10520 whole entry): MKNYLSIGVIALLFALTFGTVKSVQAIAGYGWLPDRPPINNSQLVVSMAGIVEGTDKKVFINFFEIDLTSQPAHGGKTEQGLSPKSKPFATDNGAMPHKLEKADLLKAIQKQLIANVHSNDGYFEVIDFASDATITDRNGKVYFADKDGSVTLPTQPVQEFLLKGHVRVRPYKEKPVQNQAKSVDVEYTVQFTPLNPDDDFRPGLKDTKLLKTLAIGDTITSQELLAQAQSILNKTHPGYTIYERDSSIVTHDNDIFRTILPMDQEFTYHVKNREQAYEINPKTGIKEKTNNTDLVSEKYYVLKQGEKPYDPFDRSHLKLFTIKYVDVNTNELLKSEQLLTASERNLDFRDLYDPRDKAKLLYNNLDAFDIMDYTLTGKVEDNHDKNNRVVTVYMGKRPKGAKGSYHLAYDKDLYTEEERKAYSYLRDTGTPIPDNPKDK

[7] = target: T4, Replicative DNA helicase DnaB (Mycobacterium tuberculosis, UniProt P9WMR3); test: DnaB intein splicing inhibitors, dose response, biochemical, cell-free fluorescence (AID 449749); type: functional
T4 sequence (P9WMR3 whole entry): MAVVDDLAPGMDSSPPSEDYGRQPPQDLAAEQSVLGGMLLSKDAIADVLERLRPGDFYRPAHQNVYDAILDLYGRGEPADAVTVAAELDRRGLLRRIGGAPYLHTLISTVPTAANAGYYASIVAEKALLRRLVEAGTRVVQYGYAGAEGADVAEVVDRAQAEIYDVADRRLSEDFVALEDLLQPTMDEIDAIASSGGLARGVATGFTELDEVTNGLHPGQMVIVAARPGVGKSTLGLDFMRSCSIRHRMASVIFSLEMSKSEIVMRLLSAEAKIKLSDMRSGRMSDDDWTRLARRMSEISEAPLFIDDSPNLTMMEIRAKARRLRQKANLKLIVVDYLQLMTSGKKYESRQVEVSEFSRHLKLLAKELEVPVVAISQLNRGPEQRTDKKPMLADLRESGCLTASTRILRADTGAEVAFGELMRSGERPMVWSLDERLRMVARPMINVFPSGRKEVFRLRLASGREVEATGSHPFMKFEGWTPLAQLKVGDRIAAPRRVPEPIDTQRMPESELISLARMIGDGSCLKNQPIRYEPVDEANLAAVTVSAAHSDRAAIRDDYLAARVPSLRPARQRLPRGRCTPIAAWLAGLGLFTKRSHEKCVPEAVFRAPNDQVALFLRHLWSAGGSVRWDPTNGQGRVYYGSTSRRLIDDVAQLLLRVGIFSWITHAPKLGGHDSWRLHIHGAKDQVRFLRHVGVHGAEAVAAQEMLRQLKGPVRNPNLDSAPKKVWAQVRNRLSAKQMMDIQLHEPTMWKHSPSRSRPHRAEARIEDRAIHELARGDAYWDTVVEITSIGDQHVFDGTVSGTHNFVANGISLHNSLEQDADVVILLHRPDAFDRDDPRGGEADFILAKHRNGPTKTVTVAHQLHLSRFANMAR

Protein RecA = target: T5, Protein RecA (Mycobacterium tuberculosis, UniProt P9WHJ3); test: Fluorescence Cell-Free Homogeneous Dose Retest to Identify Inhibitors of RecA-Intein Splicing Activity. [Related pubchem assays (depositor defined):AID2097, AID2223, AID489010, AID492950]; type: functional
T5 sequence (P9WHJ3 whole entry): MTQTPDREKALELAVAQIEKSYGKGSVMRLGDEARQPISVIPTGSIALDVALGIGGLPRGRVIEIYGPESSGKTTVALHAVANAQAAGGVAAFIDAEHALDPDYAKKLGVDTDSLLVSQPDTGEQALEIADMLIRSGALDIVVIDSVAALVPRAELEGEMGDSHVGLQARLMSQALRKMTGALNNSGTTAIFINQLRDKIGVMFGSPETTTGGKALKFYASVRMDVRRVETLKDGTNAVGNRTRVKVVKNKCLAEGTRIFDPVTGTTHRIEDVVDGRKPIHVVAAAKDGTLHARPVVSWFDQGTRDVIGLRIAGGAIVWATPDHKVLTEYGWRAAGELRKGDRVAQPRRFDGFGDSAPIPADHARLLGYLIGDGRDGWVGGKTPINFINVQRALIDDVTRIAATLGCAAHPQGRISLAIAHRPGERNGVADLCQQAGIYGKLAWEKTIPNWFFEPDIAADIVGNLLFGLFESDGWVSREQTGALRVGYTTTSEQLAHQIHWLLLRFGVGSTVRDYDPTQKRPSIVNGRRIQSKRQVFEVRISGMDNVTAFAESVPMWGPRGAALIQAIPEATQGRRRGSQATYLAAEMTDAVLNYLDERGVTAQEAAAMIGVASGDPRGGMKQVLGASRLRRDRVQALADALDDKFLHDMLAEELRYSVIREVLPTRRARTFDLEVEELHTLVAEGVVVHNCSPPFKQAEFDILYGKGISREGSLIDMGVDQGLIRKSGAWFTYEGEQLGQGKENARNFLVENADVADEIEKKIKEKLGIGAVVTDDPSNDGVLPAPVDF

[8] = viability of uninfected HEp-2 cells – cell-based, HTS, cytotoxicity control for RSV inhibitor project, dose response (AID 2410); type: functional; settings: human respiratory syncytial virus
[9] = NIH-3T3 fibroblast cytotoxicity, dose response, cytotoxicity control, cell-based, fluorescence, Alamar Blue, secondary assay (AID 2327); type: functional;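 further: NIH-3T3 mouse fibroblasts cultured with fluconazole at 8 µg/mL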
Cytochrome P450 2C9 = Cytochrome P450 2C9 (Homo sapiens, UniProt P11712)
Cytochrome P450 2C9, sequence (P11712 whole entry): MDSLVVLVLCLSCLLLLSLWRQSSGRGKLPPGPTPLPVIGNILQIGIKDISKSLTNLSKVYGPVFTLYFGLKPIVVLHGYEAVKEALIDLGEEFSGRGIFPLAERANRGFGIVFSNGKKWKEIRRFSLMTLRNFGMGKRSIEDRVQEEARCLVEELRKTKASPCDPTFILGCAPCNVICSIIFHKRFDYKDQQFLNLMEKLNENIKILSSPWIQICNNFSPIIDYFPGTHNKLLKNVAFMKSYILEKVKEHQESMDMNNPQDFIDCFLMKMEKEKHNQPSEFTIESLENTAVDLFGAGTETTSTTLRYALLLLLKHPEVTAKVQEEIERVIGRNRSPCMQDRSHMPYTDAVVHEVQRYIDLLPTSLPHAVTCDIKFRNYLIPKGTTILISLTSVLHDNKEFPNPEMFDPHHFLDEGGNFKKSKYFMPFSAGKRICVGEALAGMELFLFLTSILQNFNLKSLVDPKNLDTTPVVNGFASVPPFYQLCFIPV

| Compound | EC50 [1] | IC50 [2] | other results |
| --- | --- | --- | --- |
| COc1ccc(NS(=O)(=O)c2ccc(N3CCOCC3)c(NC(=O)C(C)C)c2)cc1 | > 53 µM (inactive) | > 47.1 µM (inactive) | – |
| Cc1ccccc1N=C1N=C(S)N(c2ccccc2)C12CCCCC2 | > 53 µM (inactive) | > 47.1 µM (inactive) | – |
| COc1ccc(CCNC(=O)c2cccc3c2C(=O)N(C2CCCCC2)C3)cc1OC | > 53 µM (inactive) | 5.54 µM (active) | – |
| Cc1noc(NS(=O)(=O)c2ccc(NC(=O)CS(=O)(=O)c3ccccc3)cc2)c1C | > 53 µM (inactive) | > 47.1 µM (inactive) | – |
| COc1ccc(CCN=C(N)S)cc1OC | > 53 µM (inactive) | > 47.1 µM (inactive) | – |
| COc1ccc(C(=O)ON=C(N)Cc2ccc(Cl)cc2)cc1OC | – | – | EC50 [3]: 19.1 µM (active); EC50 [4]: 21.6 µM (active) |
| CCC1C(=NO)C(CC)C(c2ccccc2)NC1c1ccccc1 (stereo unspecified) | – | – | EC50 [5]: 4.07 µM (active); EC50 [6]: > 260 µM (inactive); EC50 (Streptococcus): 11.8 µM (active); EC50 (Streptokinase A): 13.3 µM (active) |
| Cc1nn(C)c(C)c1NC(=O)CSc1nc(C2CC2)nc2c1cnn2-c1ccccc1 | – | – | EC50 [3]: 10.8 µM (active); EC50 [4]: 5.78 µM (active) |
| Cc1sc2nc(CN(Cc3cccs3)C(=O)NC3CCCCC3)[nH]c(=O)c2c1C | > 53 µM (inactive) | 16.4 µM (active) | – |
| Cc1ccc(C(=O)C=Cc2cccc(C)c2)cc1 | > 53 µM (inactive) | > 47.1 µM (inactive) | – |
| COc1ccc2c(c1)c(C(=O)O)c(C)n2-c1ccc(Cl)cc1 | > 53 µM (inactive) | > 47.1 µM (inactive) | – |
| CCN(CC)C(=O)/C(=C/c1cn(S(=O)(=O)N(C)C)c2ccccc12)NC(=O)c1ccc(OC)cc1 | > 53 µM (inactive) | > 47.1 µM (inactive) | – |
| CN(C)C(=O)c1ccc2c(c1[N+](=O)[O-])C(=O)c1ccccc1C2=O | – | – | AC50 [7]: 57.9 µM (active); EC50 (Protein RecA): 0.558 µM (active); EC50 [3]: 105 µM (active); EC50 [4]: 87 µM (active) |
| Cc1ccc(Cn2nnc3c(O)nc(C4CCN(S(=O)(=O)c5ccc(C)cc5)CC4)nc32)cc1 | – | – | CC50 [8]: 13.6 µM (active); EC50 [9]: > 150 µM (inactive) |
| CCCSC(=N)N/N=C/c1ccccc1O | – | – | EC50 [3]: 32.4 µM (active); EC50 [4]: 34.7 µM (active) |
| O=C(O)CC(SCC(=O)Nc1ccc(Br)cc1)C(=O)O (stereo unspecified) | > 53 µM (inactive) | > 47.1 µM (inactive) | – |
| CCn1c(S)nnc1CCNC(=O)c1ccccc1Cl | > 53 µM (inactive) | > 47.1 µM (inactive) | AC50 (Cytochrome P450 2C9): 1.58 µM (inconclusive) |
| CC1CCC(NC(=O)c2ccc(/C=C3\Oc4ccccc4N(C)C3=O)cc2)CC1 (stereo unspecified) | – | – | EC50 [3]: 26.7 µM (active); EC50 [4]: 28 µM (active) |
| Clc1ccc(-n2nnnc2-c2cnc(-c3ccncc3)nc2-c2cccs2)cc1 | – | – | EC50 [3]: 21.1 µM (active); EC50 [4]: 16.9 µM (active) |
| CC(=O)NC1=NN(C(C)=O)C(C)(c2ccccn2)S1 (stereo unspecified) | > 53 µM (inactive) | > 47.1 µM (inactive) | – |
| O=C(CCn1c(=O)oc2ccccc21)Nc1ccccc1 | – | – | EC50 [6]: > 260 µM (inactive) |
